Source: PMC12668310, “High‐Throughput Synthesis and Screening of a Cyanimide Library Identifies Selective Inhibitors of ISG15‐Specific Protease mUSP18” (Angewandte Chemie (International Ed. in English), 2025)

Key:
Experiment in all cases: High-throughput screening, Ub-RhoMP, single dose 1.25 µM
Assay type in all cases: biochemical
UCHL1 = target: T1, UCHL1 (Homo sapiens, UniProt P09936); settings: for %inhibition UCHL1: crude in-plate synthesized compound, 1.25 µM assuming full conversion; for inhibition at 1.25 µM: individual amine building block (plate NCN-5), read-out: BB %inhibition UCHL1
T1 construct: (1-223); made in house
T1 sequence (P09936 1-223): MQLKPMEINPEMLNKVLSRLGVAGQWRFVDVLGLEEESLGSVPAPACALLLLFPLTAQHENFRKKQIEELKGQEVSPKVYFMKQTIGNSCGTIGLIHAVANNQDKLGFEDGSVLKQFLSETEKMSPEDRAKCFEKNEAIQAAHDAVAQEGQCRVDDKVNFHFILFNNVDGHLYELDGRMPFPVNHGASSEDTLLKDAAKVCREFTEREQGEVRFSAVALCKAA
Description: (§1) Since the in‐plate synthesis was conducted in 1536‐well Echo plates, the compounds could readily be transferred from these plates into 1536‐well assay plates using acoustic liquid dispensing (Figure 2a) and subjected to HTS. We screened the whole 7536 compound library against a panel of twelve enzymes, including three DUBs from the UCH family, two DUBs from the OTU family, five DUBs from the USP family, plus ISG15 protease USP18, and SUMO protease SENP1. Each compound was tested at a single dose of 1.25 µM, assuming full conversion (10 mM in DMSO of the formed products) during the in‐plate synthesis, using the fluorogenic assay described above. […] The compounds are sorted by the amine building blocks (BB1‐16), and within each BB, sorted by carboxylic acid (CA1‐471), thereby providing a comprehensive and systematic overview of the overall inhibition by each BB and CA combination. Some interesting patterns can be obtained from this map. […] Indeed, BB10 is the privileged scaffold for UCHL1 as it originates from UCHL1 inhibitor 5 (Figure 1). […] On the other hand, OTUD1 and USP32 show a much higher hit rate, and this is even more pronounced for USP30 and ISG15 protease mUSP18, each showing many active compounds distributed over several BB's.
(§2) Purified recombinant enzymes used in this study
(§3) High-throughput screening
(§4) The screens were performed at room temperature in “flat bottom, non-treated, black […]
(§5) µM. The compounds (10 nL each) were transferred from the 1 mM daughter plates to the […]
(§6) Four wells containing DMSO
(§7) (10 nL) and four wells containing NEM (10 mM final concentration) were used in each plate […]
(§8) solution (1.33x final concentration) was added to each well, followed by incubation for 30 min.
(§9) Next, 2 µL of a substrate solution (4x final concentration) was added to each well (Ub-RhoMP[2]
(§10) After 1h or 2h incubation the
(§11) The percentage inhibition was calculated for each well using the […]
(§12) Where FIx is the fluorescence intensity of each well, FIpos is the average fluorescence intensity of the positive (NEM) control wells, and FIneg is the average fluorescence intensity of the negative (DMSO) control wells.

UCHL3 = target: T2, UCHL3 (Homo sapiens, UniProt P15374); settings: for %inhibition UCHL3: crude in-plate synthesized compound, 1.25 µM assuming full conversion; for inhibition at 1.25 µM: individual amine building block (plate NCN-5), read-out: BB %inhibition UCHL3
T2 construct: (1-230); made in house
T2 sequence (P15374 1-230): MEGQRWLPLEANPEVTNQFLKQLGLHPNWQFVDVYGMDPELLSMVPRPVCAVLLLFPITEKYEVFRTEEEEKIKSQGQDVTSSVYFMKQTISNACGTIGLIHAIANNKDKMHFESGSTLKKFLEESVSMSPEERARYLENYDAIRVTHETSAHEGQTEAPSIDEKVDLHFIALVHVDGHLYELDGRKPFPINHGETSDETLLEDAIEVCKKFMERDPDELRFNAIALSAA
Description: as §1, §2, §3, §4, §5, §6, §7, §8, §9, §10, §11, §12

USP8 = target: T3, USP8 (Homo sapiens, UniProt P40818); settings: for %inhibition USP8: crude in-plate synthesized compound, 1.25 µM assuming full conversion; for BB %inhibition USP8: individual amine building block (plate NCN-5)
T3 construct: (1-1118); purchased Ubiquigent 64-0053-050
T3 sequence (P40818 1-1118): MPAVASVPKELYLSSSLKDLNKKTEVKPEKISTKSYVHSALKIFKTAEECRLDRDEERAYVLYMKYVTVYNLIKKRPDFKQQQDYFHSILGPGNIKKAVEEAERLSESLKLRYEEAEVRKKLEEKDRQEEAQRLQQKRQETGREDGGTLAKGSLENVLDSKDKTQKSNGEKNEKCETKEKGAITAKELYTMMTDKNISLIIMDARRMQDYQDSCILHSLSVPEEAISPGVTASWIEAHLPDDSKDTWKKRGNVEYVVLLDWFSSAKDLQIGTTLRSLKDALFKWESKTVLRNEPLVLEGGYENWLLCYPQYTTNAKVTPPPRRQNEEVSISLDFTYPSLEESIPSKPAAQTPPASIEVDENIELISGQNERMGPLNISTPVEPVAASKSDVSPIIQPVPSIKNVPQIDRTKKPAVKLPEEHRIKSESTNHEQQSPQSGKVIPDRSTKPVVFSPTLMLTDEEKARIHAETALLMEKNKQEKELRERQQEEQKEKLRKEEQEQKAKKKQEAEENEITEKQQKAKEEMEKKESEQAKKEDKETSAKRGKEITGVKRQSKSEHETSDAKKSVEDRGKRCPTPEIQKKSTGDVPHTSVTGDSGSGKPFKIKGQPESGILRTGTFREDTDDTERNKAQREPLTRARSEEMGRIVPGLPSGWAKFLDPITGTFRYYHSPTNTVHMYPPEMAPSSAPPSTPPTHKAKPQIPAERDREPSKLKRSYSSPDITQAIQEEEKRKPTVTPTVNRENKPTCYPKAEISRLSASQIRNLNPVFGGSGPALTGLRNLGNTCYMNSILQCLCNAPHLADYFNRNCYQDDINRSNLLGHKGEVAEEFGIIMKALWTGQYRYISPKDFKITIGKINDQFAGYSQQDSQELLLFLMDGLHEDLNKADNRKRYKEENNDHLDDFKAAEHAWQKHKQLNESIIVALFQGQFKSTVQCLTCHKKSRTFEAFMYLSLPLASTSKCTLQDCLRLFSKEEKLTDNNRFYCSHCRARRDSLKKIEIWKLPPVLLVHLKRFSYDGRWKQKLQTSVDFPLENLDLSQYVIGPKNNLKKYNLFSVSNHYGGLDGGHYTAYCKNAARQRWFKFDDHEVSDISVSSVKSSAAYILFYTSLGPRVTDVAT
Description: as §1, §2, §3, §4, §5, §6, §7, §8, §9, §10, §11, §12

USP32 = target: T4, USP32 (Homo sapiens, UniProt Q8NFA0); settings: for %inhibition USP32: crude in-plate synthesized compound, 1.25 µM assuming full conversion; for inhibition at 1.25 µM: individual amine building block (plate NCN-5), read-out: BB %inhibition USP32
T4 construct: (1-1604); His-tag (N); made in house
T4 sequence (Q8NFA0 whole entry): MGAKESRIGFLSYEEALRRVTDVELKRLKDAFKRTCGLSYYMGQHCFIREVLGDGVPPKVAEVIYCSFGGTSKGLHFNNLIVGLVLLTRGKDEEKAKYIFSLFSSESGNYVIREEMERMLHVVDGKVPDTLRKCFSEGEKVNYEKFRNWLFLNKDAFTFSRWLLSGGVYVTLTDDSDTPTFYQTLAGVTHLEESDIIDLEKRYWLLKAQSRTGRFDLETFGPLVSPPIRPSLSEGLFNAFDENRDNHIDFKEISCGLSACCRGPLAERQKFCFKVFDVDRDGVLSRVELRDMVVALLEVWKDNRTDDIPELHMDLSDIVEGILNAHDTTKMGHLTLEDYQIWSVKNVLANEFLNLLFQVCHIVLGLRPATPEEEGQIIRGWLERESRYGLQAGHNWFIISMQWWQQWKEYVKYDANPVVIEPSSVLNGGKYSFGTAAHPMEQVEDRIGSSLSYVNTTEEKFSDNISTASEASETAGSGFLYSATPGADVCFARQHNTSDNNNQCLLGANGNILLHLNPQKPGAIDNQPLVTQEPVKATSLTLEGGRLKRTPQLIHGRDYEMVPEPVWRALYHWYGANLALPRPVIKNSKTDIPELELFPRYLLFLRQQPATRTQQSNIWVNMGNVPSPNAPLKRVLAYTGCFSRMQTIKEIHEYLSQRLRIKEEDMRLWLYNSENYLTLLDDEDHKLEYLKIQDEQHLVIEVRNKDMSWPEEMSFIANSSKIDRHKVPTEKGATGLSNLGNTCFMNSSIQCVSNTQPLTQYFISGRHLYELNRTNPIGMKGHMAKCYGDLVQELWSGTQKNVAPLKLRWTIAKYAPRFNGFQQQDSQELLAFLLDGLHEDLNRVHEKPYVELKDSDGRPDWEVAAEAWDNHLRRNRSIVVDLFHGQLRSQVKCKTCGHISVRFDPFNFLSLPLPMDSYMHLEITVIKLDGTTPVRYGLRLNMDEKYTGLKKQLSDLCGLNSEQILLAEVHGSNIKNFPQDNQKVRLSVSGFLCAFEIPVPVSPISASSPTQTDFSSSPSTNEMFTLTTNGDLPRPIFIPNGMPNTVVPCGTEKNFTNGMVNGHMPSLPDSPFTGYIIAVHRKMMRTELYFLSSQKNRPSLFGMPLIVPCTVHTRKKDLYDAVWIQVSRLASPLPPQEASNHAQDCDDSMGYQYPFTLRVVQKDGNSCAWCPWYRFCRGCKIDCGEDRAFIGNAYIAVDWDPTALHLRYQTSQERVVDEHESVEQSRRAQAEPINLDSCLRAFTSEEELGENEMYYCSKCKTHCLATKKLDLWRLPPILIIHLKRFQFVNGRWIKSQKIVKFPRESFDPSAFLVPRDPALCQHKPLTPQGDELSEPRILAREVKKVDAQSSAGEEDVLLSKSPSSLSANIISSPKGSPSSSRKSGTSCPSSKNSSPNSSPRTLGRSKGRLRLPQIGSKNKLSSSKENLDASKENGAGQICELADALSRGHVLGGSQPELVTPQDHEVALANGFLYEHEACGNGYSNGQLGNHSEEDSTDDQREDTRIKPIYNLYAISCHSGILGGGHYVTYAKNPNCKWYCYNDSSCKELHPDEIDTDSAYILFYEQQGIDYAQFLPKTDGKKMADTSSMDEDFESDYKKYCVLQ
Description: as §1, §2, §3, §4, §5, §6, §7, §8, §9, §10, §11, §12

UCHL5 = target: T5, UCHL5 (Homo sapiens, UniProt Q9Y5K5); settings: for %inhibition UCHL5: crude in-plate synthesized compound, 1.25 µM assuming full conversion; for inhibition at 1.25 µM: individual amine building block (plate NCN-5), read-out: BB %inhibition UCHL5
T5 construct: (1-329); purchased Novus biochemicals NBP1-72315
T5 sequence (Q9Y5K5 1-329): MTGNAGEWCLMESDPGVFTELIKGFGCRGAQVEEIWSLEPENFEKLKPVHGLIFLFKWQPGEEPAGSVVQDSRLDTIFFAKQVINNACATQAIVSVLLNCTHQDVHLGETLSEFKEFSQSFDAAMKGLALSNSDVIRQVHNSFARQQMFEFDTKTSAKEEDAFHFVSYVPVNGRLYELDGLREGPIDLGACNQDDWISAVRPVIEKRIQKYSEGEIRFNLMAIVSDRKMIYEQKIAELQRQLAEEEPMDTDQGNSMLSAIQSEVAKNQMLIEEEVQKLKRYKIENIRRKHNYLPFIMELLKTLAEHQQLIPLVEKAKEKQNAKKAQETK
Description: as §1, §2, §3, §4, §5, §6, §7, §8, §9, §10, §11, §12

%inhibition UCHL1 (UCHL1) [%] | %inhibition UCHL3 (UCHL3) [%] | %inhibition USP8 (USP8) [%] | %inhibition USP32 (USP32) [%] | %inhibition UCHL5 (UCHL5) [%] | inhibition at 1.25 µM (UCHL1) [%] | inhibition at 1.25 µM (UCHL3) [%] | BB %inhibition USP8 (USP8) [%] | inhibition at 1.25 µM (USP32) [%] | inhibition at 1.25 µM (UCHL5) [%] | Structure (SMILES)
8.8 | 17.1 | 32.5 | 21.1 | 6.2 |  |  |  |  |  | N#CN1CC[C@@H](NC(=O)Cc2csc(-c3cnccn3)n2)C1 [BB01CA92]
 |  |  |  |  | 3.8 | -0.9 | 1.7 | 5.3 | 2.9 | N#CN1CC(N)C1 [BB5]
 |  |  |  |  | 0.7 | -7.4 | -1.7 | 2.8 | -1.4 | N#CN1C[C@H]2C[C@H](N)C[C@H]2C1 [BB7]
 |  |  |  |  | 1 | -2.2 | 1.5 | 1.3 | 4.6 | N#CN1CCC[C@H](N)C1 [BB8]
 |  |  |  |  | 0.4 | -4.7 | -1.3 | 6 | 2.5 | N#CN1C[C@H]2C[C@@H](N)C[C@H]2C1 [BB6]
11.2 | 16.3 | 28.4 | 22.5 | 8.4 |  |  |  |  |  | N#CN1CC[C@@H](NC(=O)C(Cc2c[nH]cn2)NS(=O)(=O)c2ccc(Cl)cc2)C1 (stereo partly drawn) [BB01CA91]
 |  |  |  |  | 0.8 | 8 | 0.0 | 1.1 | 0.225 | N#CN1C[C@H](N)[C@@H](O)C1 [BB13]
 |  |  |  |  | 4 | 3.9 | 1.0 | 9 | -3.3 | N#CN1CCC(N)CC1 [BB2]
 |  |  |  |  | -2.6 | -5.7 | -2.4 | -1.5 | -7.1 | N#CN1CC[C@H](CN)C1 [BB11]
15.1 | 19.3 | 29.2 | 19.4 | 6.9 |  |  |  |  |  | N#CN1CC[C@@H](NC(=O)c2nc(N3CCCC3)ncc2Cl)C1 [BB01CA90]
8.0 | 16.0 | 24.1 | 15.3 | 4.4 |  |  |  |  |  | N#CN1CC[C@@H](NC(=O)c2ncoc2-c2cccs2)C1 [BB01CA94]
 |  |  |  |  | 1 | 1.4 | 2.7 | -3.1 | -6 | N#CN1C[C@@H](F)[C@@H](N)C1 [BB15]
 |  |  |  |  | 3.6 | 2 | 5.3 | 4.7 | -6.7 | N#CN1CCC[C@@H](N)C1 [BB4]
 |  |  |  |  | 1.1 | 0.6 | 3.6 | 8.4 | -5.8 | N#CN1CC[C@H](N)C1 [BB3]
 |  |  |  |  | 2.6 | 5.9 | 9.1 | 9.5 | -4.7 | N#CN1CC[C@@H](N)C1 [BB1]
 |  |  |  |  | 1.3 | 2.3 | -3.5 | -6.1 | -7.7 | N#CN1CCC(n2cc(N)cn2)CC1 [BB16]
9.7 | 16.3 | 33.0 | 75.0 | 5.2 |  |  |  |  |  | N#CN1CC[C@@H](NC(=O)CCN(Cc2ccccc2)S(=O)(=O)c2c(Cl)cccc2Cl)C1 [BB01CA93]
 |  |  |  |  | -0.3 | -2.3 | 20.0 | 2.8 | -9.9 | N#CN1CC[C@@H](NC(=O)c2ccc(CN)cc2)C1 [BB9]

Structure (SMILES) | %inhibition UCHL1 (UCHL1) [%] | %inhibition UCHL3 (UCHL3) [%] | %inhibition USP8 (USP8) [%] | %inhibition USP32 (USP32) [%] | %inhibition UCHL5 (UCHL5) [%] | inhibition at 1.25 µM (UCHL1) [%] | inhibition at 1.25 µM (UCHL3) [%] | BB %inhibition USP8 (USP8) [%] | inhibition at 1.25 µM (USP32) [%] | inhibition at 1.25 µM (UCHL5) [%]
N#CN1CCC2(CCNC2)C1 (stereo not drawn) [BB14] |  |  |  |  |  | 1 | 8.6 | 7.8 | 0.344 | -1.4
N#CN1CC[C@H](C(=O)Nc2nc3c(s2)CNCC3)C1 [BB10] |  |  |  |  |  | ~35 | -5.1 | 0.105 | 1.5 | -11
N#CN1C[C@@H]2C[C@H]1CN2 [BB12] |  |  |  |  |  | -1.2 | -4.6 | -2.5 | -1.2 | -5.3
